Among the data in the PolyMetriX glass transition set are glass transition temperature values, retold here.

SMILES strings stand for the structures.

`*C(=O)Nc1ccc(Oc2ccc(-c3ccc(Oc4ccc(NC(=O)c5ccc6c(c5)C(=O)N(c5ccc(C)c(N7C(=O)c8ccc(*)cc8C7=O)c5)C6=O)cc4)cc3)cc2)cc1` (repeat unit) gave a glass transition temperature of 299.00 °C.
In the case of `*C(=O)Nc1ccc(Oc2ccccc2-c2ccccc2Oc2ccc(NC(=O)c3ccc4c(c3)C(=O)N(c3ccc(C)c(N5C(=O)c6ccc(*)cc6C5=O)c3)C4=O)cc2)cc1` (repeat unit), the glass transition temperature amounted to 266.00 °C.
Then `*C(=O)c1cc(C(=O)c2ccc3c(c2)C(=O)N(c2ccc(Oc4ccc(S(=O)(=O)c5ccc(Oc6ccc(N7C(=O)c8ccc(*)cc8C7=O)cc6)cc5)cc4)cc2)C3=O)cc(C(C)(C)C)c1` (repeat unit), with 254.50 °C; and `*C(=O)c1ccc2c(c1)C(=O)N(c1ccc(-c3cc(-c4ccc(OC)cc4)cc(-c4ccc(N5C(=O)c6ccc(*)cc6C5=O)cc4)n3)cc1)C2=O` (repeat unit), with 331.00 °C.
In the case of `*C(=O)c1ccc2c(c1)C(=O)N(c1ccc3c(c1)C(=O)c1cc(N4C(=O)c5ccc(*)cc5C4=O)ccc1-3)C2=O` (repeat unit), the glass transition temperature stood at 331.00 °C.
Regarding `*C(=O)c1ccc2c(c1)C(=O)N(c1cccc(C(=O)c3ccc(Cc4ccc(C(=O)c5cccc(N6C(=O)c7ccc(*)cc7C6=O)c5)cc4)cc3)c1)C2=O` (repeat unit), the glass transition temperature turned out to be 260.50 °C.
The same measure for `*C1=C(c2ccc(-c3ccc4c(c3)C(CCCCCC)(CCCCCC)c3cc(-c5ccc(*)cc5)ccc3-4)cc2)C(=O)N(CCCC)C1=O` (repeat unit): 155.00 °C; for `*CCCCCCCCCCCCCCc1ccc(-c2c(-c3ccccc3)cc(-c3cccc(-c4cc(-c5ccccc5)c(-c5ccc(*)cc5)c(-c5ccccc5)c4-c4ccccc4)c3)c(-c3ccccc3)c2-c2ccccc2)cc1` (repeat unit): 160.00 °C.
Then `*CCCCCCCCCCc1ccc(-c2c(-c3ccccc3)cc(-c3cccc(-c4cc(-c5ccccc5)c(-c5ccc(*)cc5)c(-c5ccccc5)c4-c4ccccc4)c3)c(-c3ccccc3)c2-c2ccccc2)cc1` (repeat unit), with 180.00 °C; and `*CCCCCCN1C(=O)C(=O)N(c2ccc(C)c(N3C(=O)C(=O)N(*)C3=O)c2)C1=O` (repeat unit), with 181.50 °C.
Then `*CCCCCCN1C(=O)C(=O)N(c2ccc(CCc3ccccc3N3C(=O)C(=O)N(*)C3=O)cc2)C1=O` (repeat unit), with 137.00 °C.
With `*CCCCNC(=O)c1ccc(C(C)(CC)c2ccc(C(=O)N*)cc2)cc1` (repeat unit), the glass transition temperature was 182.00 °C.
Then `*CCCCc1ccc(-c2c(-c3ccccc3)cc(-c3ccc(-c4cc(-c5ccccc5)c(-c5ccc(*)cc5)c(-c5ccccc5)c4-c4ccccc4)cc3)c(-c3ccccc3)c2-c2ccccc2)cc1` (repeat unit), with 205.00 °C; and `*CCCCc1ccc(-c2c(-c3ccccc3)cc(-c3cccc(-c4cc(-c5ccccc5)c(-c5ccc(*)cc5)c(-c5ccccc5)c4-c4ccccc4)c3)c(-c3ccccc3)c2-c2ccccc2)cc1` (repeat unit), with 180.00 °C.
`*CCN(CCOC(=O)c1ccc([Si](C)(C)c2ccc(C(=O)O*)cc2)cc1)c1ccc(/C=C/c2ccc([N+](=O)[O-])cc2)cc1` (repeat unit) gave a glass transition temperature of 127.00 °C.
Molecule `*CCNC(=O)c1ccc([Si](CCCC)(CCCC)c2ccc(C(=O)NCCN(*)c3ccc(/C=C/c4ccc([N+](=O)[O-])cc4)cc3)cc2)cc1` (repeat unit) gave a glass transition temperature of 115.00 °C.
Then `*CNC(=O)OCC(OC(=O)NCc1ccc(C(CCC)c2ccc(*)o2)o1)c1ccco1` (repeat unit), with 43.00 °C; and `*CNC(=O)OCc1ccc(COCc2ccc(COC(=O)NCc3ccc(C(C)(C)c4ccc(*)o4)o3)o2)o1` (repeat unit), with 39.00 °C; and `*Cc1ccc(C(C)c2ccc(CN3C(=O)c4ccc(Oc5ccc6c(c5)C(=O)N(*)C6=O)cc4C3=O)o2)o1` (repeat unit), with 129.00 °C.
Regarding `*Nc1ccc(C2(c3ccc(NC(=O)c4ccc(-c5ccc(C(*)=O)c(C)c5)cc4C)cc3)c3ccccc3-c3ccccc32)cc1` (repeat unit), the glass transition temperature was 293.00 °C.
`*Nc1cccc2c(NC(=O)c3ccc(NC(=O)c4ccc([Si](C)(C)c5ccc(C(=O)Nc6ccc(C(*)=O)cc6)cc5)cc4)cc3)cccc12` (repeat unit): the glass transition temperature came to 378.00 °C.
`*OC(=O)c1ccc(C(C)(C)c2ccc(C(*)=O)cc2)cc1` (repeat unit) gave a glass transition temperature of 100.00 °C.
`*OS(=O)(=O)c1cc(S(=O)(=O)Oc2ccc(C3(c4ccc(*)cc4)CCCC3)cc2)ccc1C` (repeat unit) registered a glass transition temperature of 134.00 °C.
The same measure for `*Oc1ccc(NC(=O)c2cc(-c3ccc(C(=O)O)c(C(=O)Nc4ccc(*)cc4)c3)ccc2C(=O)O)cc1` (repeat unit): 184.40 °C; for `*Oc1ccc(NC(=O)c2cc(-c3ccc(C(=O)OCC)c(C(=O)Nc4ccc(*)cc4)c3)ccc2C(=O)OCC)cc1` (repeat unit): 190.2 °C; for `*Oc1ccc(Oc2ccc(Oc3ccc(NC(=O)c4ccc(-c5ccc(C(=O)Nc6ccc(*)cc6)c(C)c5)cc4C)cc3)cc2)cc1` (repeat unit): 200.00 °C.
Take `*Oc1ccc(S(=O)(=O)c2ccc(OC(=O)c3ccc([Si](C)(C)c4ccc(C(*)=O)cc4)cc3)cc2)cc1` (repeat unit): the glass transition temperature was 235.00 °C.
`*Oc1ccc(S(=O)(=O)c2ccc(Oc3cccc(NC(=O)c4ccc(-c5ccc(C(=O)Nc6cccc(*)c6)c(C)c5)cc4C)c3)cc2)cc1` (repeat unit) showed a glass transition temperature of 220.00 °C.
`*Oc1cccc(NC(=O)c2ccc([Si](C)(C)c3ccc(C(*)=O)cc3)cc2)c1` (repeat unit) returned a glass transition temperature of 220.00 °C.
As for `*Oc1cccc(Oc2ccc(/N=C/c3ccc(N(c4ccccc4)c4ccc(/C=N/c5ccc(*)cc5)cc4)cc3)cc2)c1` (repeat unit), the glass transition temperature was determined as 174.00 °C.
Take `*c1ccc(-c2cc(-c3ccc(OCCCC#N)cc3)cc(-c3ccc(N4C(=O)c5ccc(-c6ccc7c(c6)C(=O)N(*)C7=O)cc5C4=O)cc3)n2)cc1` (repeat unit): the glass transition temperature is 360.00 °C.
Take `*c1ccc(-c2cc(C(C)(C)C)c(Oc3ccc(N4C(=O)c5ccc(-c6ccc7c(c6)C(=O)N(*)C7=O)cc5C4=O)cc3C(F)(F)F)c(C(C)(C)C)c2)cc1` (repeat unit): the glass transition temperature was 389.00 °C.
For the molecule `*c1ccc(-c2ccc3c(c2)C(CCCCCCCC)(CCCCCCCC)c2cc(-c4ccc(N(*)c5ccc(N(c6ccc(C(C)(C)c7ccccc7)cc6)c6ccc(C(C)(C)c7ccccc7)cc6)cc5)cc4)ccc2-3)cc1` (repeat unit), the glass transition temperature came to 137.00 °C.
Regarding `*c1ccc(/C=C/c2ccc(-n3c(=O)c4cc5c(=O)n(*)c(=O)c5cc4c3=O)cc2S(=O)(=O)[O][Na])c(S(=O)(=O)[O][Na])c1` (repeat unit), the glass transition temperature stood at 228.00 °C.
The molecule `*c1ccc(C(F)(F)C(*)(F)F)cc1` (repeat unit) came in with a glass transition temperature of 77.0 °C.
`*c1ccc(C(c2ccc(N(*)c3ccc(C)cc3)cc2)c2ccc([N+](=O)[O-])cc2)cc1` (repeat unit) had a glass transition temperature of 215.00 °C.
`*c1ccc(C(c2ccc(N3C(=O)c4cc5c(cc4C3=O)C(C(F)(F)F)(C(F)(F)F)c3cc4c(cc3O5)C(=O)N(*)C4=O)cc2)(C(F)(F)F)C(F)(F)F)cc1` (repeat unit) yielded a glass transition temperature of 430.00 °C.
Consider `*c1ccc(C(c2ccc(OCCCC)cc2)c2ccc(N(*)c3ccc(C)cc3)cc2)cc1` (repeat unit), for which the glass transition temperature was 170.00 °C.
Regarding `*c1ccc(C(c2ccccc2)(c2ccc(-n3c(=O)c4cc5c(=O)n(*)c(=O)c5cc4c3=O)cc2)C(F)(F)F)cc1` (repeat unit), the glass transition temperature is 436.00 °C.
Take `*c1ccc(C)c(N2C(=O)c3ccc(-c4ccc5c(c4)C(=O)N(*)C5=O)cc3C2=O)c1` (repeat unit): the glass transition temperature was 395.00 °C.
`*c1ccc(CCc2ccc(N3C(=O)C(=O)N(*)C3=O)cc2)cc1` (repeat unit): the glass transition temperature amounted to 196.00 °C.
`*c1ccc(CCc2ccccc2N2C(=O)C(=O)N(c3ccc(Cc4ccc(N5C(=O)C(=O)N(*)C5=O)cc4)cc3)C2=O)cc1` (repeat unit) yielded a glass transition temperature of 198.00 °C.
The same measure for `*c1ccc(Cc2ccc(-n3c(=O)c4cc5c(=O)n(*)c(=O)c5cc4c3=O)cc2)cc1` (repeat unit): 351.00 °C; for `*c1ccc(Cc2ccc(N(c3ccc(C)cc3)c3ccc(-c4ccc(N(*)c5ccc(C)cc5)cc4)cc3)cc2)cc1` (repeat unit): 183.00 °C.
The same measure for `*c1ccc(Cc2ccc(N3C(=O)C(C)C(SCCOCCSC4C(=O)N(c5ccc(Cc6ccc(N7C(=O)CC(C)(SCCOCCSC8(C)CC(=O)N(*)C8=O)C7=O)cc6)cc5)C(=O)C4C)C3=O)cc2)cc1` (repeat unit): 105.00 °C; for `*c1ccc(N2C(=O)c3c(c(-c4ccccc4)c(-c4ccc(-c5c(-c6ccccc6)c6c(c(-c7ccccc7)c5-c5ccccc5)C(=O)N(*)C6=O)cc4)c(-c4ccccc4)c3-c3ccccc3)C2=O)cc1` (repeat unit): 466.00 °C.
Consider `*c1ccc(N2C(=O)c3ccc(C(=O)c4ccc5c(c4)C(=O)N(c4ccc6[nH]c(*)nc6c4)C5=O)cc3C2=O)cc1` (repeat unit), for which the glass transition temperature worked out at 412.00 °C.
Consider `*c1ccc(S(=O)(=O)c2ccc(-n3nccc3-c3cccc(-c4ccnn4*)c3)cc2)cc1` (repeat unit), for which the glass transition temperature is 218.00 °C.
Then `*c1ccc2c(c1)C(=O)N(c1cc(N3C(=O)c4ccc(C(*)(C(F)(F)F)C(F)(F)F)cc4C3=O)ccc1C)C2=O` (repeat unit), with 335.00 °C; and `*c1ccc2c(c1)C(=O)N(c1cc(NC(=O)OCCN(CCOC(=O)Nc3cc(N4C(=O)c5ccc(C(*)(C(F)(F)F)C(F)(F)F)cc5C4=O)ccc3C)c3ccc(/N=N/c4ccc([N+](=O)[O-])cc4)cc3)ccc1C)C2=O` (repeat unit), with 196.00 °C.
